# From patent EP4772505A1, “COMPOUND FOR DEGRADING ANDROGEN RECEPTOR AND MEDICAL USE THEREOF” (Ubix Therapeutics, Inc., priority 2023, dated 2025)
# Where two headings read alike, the source gives them in different places.
# Molecular target: T1, Androgen Receptor (AR) (Homo sapiens, UniProt P10275)
# T1 sequence (P10275 1-920): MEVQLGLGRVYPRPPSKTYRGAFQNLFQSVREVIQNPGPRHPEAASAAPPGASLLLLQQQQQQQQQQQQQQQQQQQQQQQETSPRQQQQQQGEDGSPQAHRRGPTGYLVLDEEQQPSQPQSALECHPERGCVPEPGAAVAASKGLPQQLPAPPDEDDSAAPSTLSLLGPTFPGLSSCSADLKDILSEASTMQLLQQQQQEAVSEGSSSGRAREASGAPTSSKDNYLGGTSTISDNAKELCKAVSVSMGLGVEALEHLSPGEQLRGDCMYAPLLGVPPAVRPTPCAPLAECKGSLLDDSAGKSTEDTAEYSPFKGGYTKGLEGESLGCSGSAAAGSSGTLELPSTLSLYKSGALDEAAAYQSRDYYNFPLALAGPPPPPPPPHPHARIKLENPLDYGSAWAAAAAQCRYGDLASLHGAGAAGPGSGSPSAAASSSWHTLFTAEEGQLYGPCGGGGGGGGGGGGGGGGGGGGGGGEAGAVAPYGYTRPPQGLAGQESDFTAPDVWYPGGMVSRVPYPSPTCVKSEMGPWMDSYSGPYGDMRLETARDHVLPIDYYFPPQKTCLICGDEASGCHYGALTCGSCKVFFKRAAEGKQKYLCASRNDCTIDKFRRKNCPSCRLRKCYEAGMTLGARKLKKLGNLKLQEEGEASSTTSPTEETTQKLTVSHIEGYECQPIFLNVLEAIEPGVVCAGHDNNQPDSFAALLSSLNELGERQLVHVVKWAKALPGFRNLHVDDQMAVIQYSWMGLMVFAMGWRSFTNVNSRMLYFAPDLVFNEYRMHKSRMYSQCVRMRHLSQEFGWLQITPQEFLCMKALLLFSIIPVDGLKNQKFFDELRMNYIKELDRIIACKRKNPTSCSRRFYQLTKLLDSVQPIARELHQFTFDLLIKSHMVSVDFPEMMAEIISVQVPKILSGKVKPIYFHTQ
# Assay: Measurement of AR protein degradation in VCaP cells by Western blotting
# Format: cell-based
# Parameters: endogenous in cells; host or cells: VCaP
# Details: read-out: AR degradation in VCaP cells (%)
# Method: The amount of AR protein present in LNCaP or VCaP cells was measured after treating them with the synthesized compound. The amount of AR protein was measured using Western blotting. The protocol for the experiments using LNCaP or VCaP cells was as follows.
# [Culture] LNCaP cells were resuspended in RPMI1640 medium + HEPES (Hyclone, SH30255.01), 10% FBS (Hyclone, SV30207.02), and 1% Penicillin-streptomycin (Welgene, LS 202-02). 3 x 10^5 cells/mL were seeded in 12-well plates (1 mL per well) and cultured for 3 days. VCaP cells were resuspended in IMDM MEDIUM (Hyclone, SH30228.01), 20% FBS (Hyclone, SV30207.02), and 1% Penicillin-streptomycin (Welgene, LS 202-02), seeded at 9 x 10^5/mL in 1 mL per 12-well plate, and cultured for 3 days.
# [Compound Treatment] 10 µL of 100x stock (e.g., 0.1, 1, 10 µM) compound solution at the final compound treatment concentration (e.g., 0.001, 0.01, 0.1 µM) was added to each well in 1 mL media, and cells were harvested after 20 hours. For DC50 measurement, 100x stock (0.01, 0.1, 1, 10, 100, 1000 µM) compound solutions at the final compound treatment concentration (0.0001, 0.001, 0.01, 0.1, 1, 10 µM) were used.
# [Cell lysis] The cell pellet was suspended using 1% SDS lysis buffer (50 mM Tris, 1 mM EDTA, 1% SDS, pH 8.0, 0.5 mM PMSF, 1x Protease/Phosphatase inhibitor Cocktail (Cell Signaling Technology, 5872S)), and sonication (70% AMP, 10 cycles (30 sec ON/59 sec OFF)) was performed. After centrifugation at 4°C and 20,000 g for 20 minutes, the cell lysate was obtained and transferred to a new tube.
# [Protein Quantification] A BCA protein assay (SMART™ BCA Protein Assay Kit, iNtRON Biotechnology, 21071) was performed using a 96-well microplate. 5 µL of cell lysate and 5 µL of 1% SDS lysis buffer were added to each well of the 96-well plate, followed by an additional 200 µL of BCA reagent (Reagent A: Reagent B = 50:1). The wells were incubated at 37°C for 30 minutes and cooled to room temperature for 10 minutes. After shaking for 10 seconds, the absorbance was measured at a wavelength of 562 nm. The unknown protein concentration was determined using a BSA standard curve (0, 0.125, 0.25, 0.5, 1, 2 mg/mL). Western blotting samples were prepared by mixing cell lysate, 1% SDS lysis buffer, 4x NuPAGE™ LDS Sample buffer (Invitrogen, NP0008), and 10X NuPAGE™ Sample Reducing Agent (Invitrogen, NP0009) and boiling at 70°C for 10 minutes.
# [Electrophoresis] 10 µg of protein sample was loaded into each well of a NuPAGE™ 4 to 12%, Bis-Tris, 1.0 mm Mini Protein Gel, 15-well, 17-well, or 26-well (Invitrogen, NP0323BOX, NP0329BOX, or WG1403BOX) and electrophoresed for 40 minutes using NuPAGE™MES SDS Running Buffer (Invitrogen, NP0002) at 200 V (constant V).
# [Transfer] Transfer was performed for 15 or 18 minutes using the electrophoresed gel and the Trans-Blot® Turbo™ Transfer Starter System (Bio-RAD, #17001918, Mini Nitrocellulose) at 1.3 A (constant A) and 25 V (limit V). To confirm protein transfer, 15 mL of Ponceau S solution (Sigma, P7170-1L) was used to stain for 1 minute, and then washed to check the degree of transfer.
# [Blocking] The membrane for AR and GAPDH detection was blocked with 5% skim milk/0.2% TBST (Skim milk: BD, 232100/ 20X TBS: Biosesang, TR2008-100-00/ 10% Tween 20 Solution: Bio-RAD, #161-0781) for 45 minutes.
# [Antibodies and Detection] Primary AR antibody (Androgen Receptor: CST, 5153S) was mixed with 5% skim milk/0.2% TBST at a ratio of 1:1,000 and reacted at room temperature for 3 hours or at 4°C overnight. Primary GAPDH antibody (CST, 2118S) was mixed with 5% skim milk/0.2% TBST at a ratio of 1:2,000 and reacted at room temperature for 3 hours or at 4°C overnight. Afterwards, TBST (0.2% Tween 20) was used for washing three times every 5 minutes. Secondary antibody to AR antibody, Anti-rabbit IgG, HRP-linked Antibody (CST, 7074S), was mixed with 5% skim milk/0.2% TBST at a ratio of 1:5,000 and reacted at room temperature for 45 minutes. […]
"Dmax at 0.01 µM (10 nM compound, 20 hours, VCaP cells)","Dmax at 0.1 µM (100 nM compound, 20 hours, VCaP cells)",Structure (SMILES),"Dmax at 0.01 µM (VCaP, 20 h)","Dmax at 0.1 µM (VCaP, 20 h)"
99%,100%,"COc1cc(N2CCC(C(=O)Nc3ccc(OC4CCN(CC5CCN(c6ccc(NC7CCC(=O)NC7=O)cc6F)CC5)CC4)nn3)CC2)ccc1C#N (stereo not shown) [Example 16, 1-(4-cyano-3-methoxyphenyl)-N-(6-((1-((1-(4-((2,6-dioxopiperidin-3-yl)amino)-2-fluorophenyl)piperidin-4-yl)methyl)piperidin-4-yl)oxy)pyridazin-3-yl)piperidine-4-carboxamide]",,
,,"N#Cc1ccc(N2CCC(C(=O)Nc3ccc(OC4CCN(CC5CCN(c6ccc(NC7CCC(=O)NC7=O)cc6Cl)CC5)CC4)cn3)CC2)cc1C(F)(F)F (stereo not shown) [Example 17, N-(5-((1-((1-(2-chloro-4-((2,6-dioxopiperidin-3-yl)amino)phenyl)piperidin-4-yl)methyl)piperidin-4-yl)oxy)pyridin-2-yl)-1-(4-cyano-3-(trifluoromethyl)phenyl)piperidine-4-carboxamide]",75%,97%
